# Reference: patent US10508104B2, “6-hydroxy-5-(phenyl/heteroarylsulfonyl)pyrimidin-4(1H)-one as APJ agonists” (Bristol-Myers Squibb Company, priority 2016, dated 2019)
# Target: human APJ receptor (Homo sapiens (Human), UniProt P35414)
# Assay: Intracellular cAMP accumulation assay (APJ hcAMP, HTRF)
# Assay type: cell-based
# Details: human APJ, cAMP accumulation; read-out: Human APJ cAMP EC50 Potency range
# Summary of the method: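 HEK293 cells stably expressing human APJ, 5,000 per well, incubated 30 min at rt with compound, […] and 2 μM forskolin. cAMP measured by HTRF against a cAMP standard curve as inhibition of forskolin-driven production. EC50 from variable-slope sigmoidal fit.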
# Sequence of human APJ receptor (P35414 whole entry): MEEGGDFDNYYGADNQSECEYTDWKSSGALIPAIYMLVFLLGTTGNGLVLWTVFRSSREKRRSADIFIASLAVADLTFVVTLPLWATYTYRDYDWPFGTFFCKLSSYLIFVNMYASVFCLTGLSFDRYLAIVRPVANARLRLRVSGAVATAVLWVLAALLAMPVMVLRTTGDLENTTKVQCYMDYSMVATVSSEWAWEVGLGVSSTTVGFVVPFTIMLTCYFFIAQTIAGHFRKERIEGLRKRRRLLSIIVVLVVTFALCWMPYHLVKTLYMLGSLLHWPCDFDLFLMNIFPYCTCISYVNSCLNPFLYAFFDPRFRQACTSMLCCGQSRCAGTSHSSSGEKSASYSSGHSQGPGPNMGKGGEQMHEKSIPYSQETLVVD
row,Compound,EC50
1,"CCCCc1nc(=O)c(S(=O)(=O)c2ccc(-c3cncc(F)c3)cc2)c(O)n1[C@@H](C)c1ccc(OC)cc1 [Example 241, 2-butyl-5-[4-(5-fluoropyridin-3-yl)benzenesulfonyl]-6-hydroxy-1-[(1S)-1-(4-methoxyphenyl)ethyl]-1,4-dihydropyrimidin-4-one]",0.01 to 10 nM
2,"CCCCCc1nc(=O)c(S(=O)(=O)c2ccc(-c3ccnc(F)c3C)cc2)c(O)n1[C@@H](COC)c1ccccc1 [Example 242, 5-[4-(2-fluoro-3-methylpyridin-4-yl)benzenesulfonyl]-6-hydroxy-1-[(1R)-2-methoxy-1-phenylethyl]-2-pentyl-1,4-dihydropyrimidin-4-one]",0.01 to 10 nM
3,"CCCCc1nc(=O)c(S(=O)(=O)c2ccc(-c3ccnc(F)c3C)cc2)c(O)n1[C@H]1CCCc2ccccc21 [Example 243, 2-butyl-5-[4-(2-fluoro-3-methylpyridin-4-yl)benzenesulfonyl]-6-hydroxy-1-[(1S)-1,2,3,4-tetrahydronaphthalen-1-yl]-1,4-dihydropyrimidin-4-one]",0.01 to 10 nM
4,"CCCCc1nc(=O)c(S(=O)(=O)c2ccc(-c3ccnc(F)c3C)cc2)c(O)n1[C@@H](C)c1ccc(OC)cc1 [Example 244, 2-butyl-5-[4-(2-fluoro-3-methylpyridin-4-yl)benzenesulfonyl]-6-hydroxy-1-[(1S)-1-(4-methoxyphenyl)ethyl]-1,4-dihydropyrimidin-4-one]",0.01 to 10 nM
5,"CCCCCc1nc(=O)c(S(=O)(=O)c2ccc(-c3ccncc3C)cc2)c(O)n1[C@@H](COC)c1ccccc1 [Example 245, 6-hydroxy-1-[(1R)-2-methoxy-1-phenylethyl]-5-[4-(3-methylpyridin-4-yl)benzenesulfonyl]-2-pentyl-1,4-dihydropyrimidin-4-one]",0.01 to 10 nM
6,"CCCCc1nc(O)c(S(=O)(=O)c2ccc(Br)cc2)c(=O)n1[C@@H](C)c1ccc(OC)cc1 [Example 246, 5-(4-bromobenzenesulfonyl)-2-butyl-6-hydroxy-3-[(1S)-1-(4-methoxyphenyl)ethyl]-3,4-dihydropyrimidin-4-one]",0.01 to 10 nM
7,"CCCCCc1nc(=O)c(S(=O)(=O)c2ccc(Br)cc2)c(O)n1[C@@H](COC)c1ccccc1 [Example 247, 5-(4-bromobenzenesulfonyl)-6-hydroxy-3-[(1R)-2-methoxy-1-phenylethyl]-2-pentyl-3,4-dihydropyrimidin-4-one]",10 to 100 nM
8,"CCCCCc1nc(=O)c(S(=O)(=O)c2ccc(-c3cncc(F)c3)cc2)c(O)n1[C@@H](COC)c1ccccc1 [Example 248, 5-[4-(5-fluoropyridin-3-yl)benzenesulfonyl]-6-hydroxy-1-[(1R)-2-methoxy-1-phenylethyl]-2-pentyl-1,4-dihydropyrimidin-4-one]",0.01 to 10 nM
9,"CCCCCc1nc(=O)c(S(=O)(=O)c2ccc(-c3cccnc3C)cc2)c(O)n1[C@@H](COC)c1ccccc1 [Example 249, 6-hydroxy-1-[(1R)-2-methoxy-1-phenylethyl]-5-[4-(2-methylpyridin-3-yl)benzenesulfonyl]-2-pentyl-1,4-dihydropyrimidin-4-one]",0.01 to 10 nM
10,"CCCCCc1nc(=O)c(S(=O)(=O)c2ccc(-c3ccc(F)nc3C)cc2)c(O)n1[C@@H](COC)c1ccccc1 [Example 250, 5-[4-(6-fluoro-2-methylpyridin-3-yl)benzenesulfonyl]-6-hydroxy-1-[(1R)-2-methoxy-1-phenylethyl]-2-pentyl-1,4-dihydropyrimidin-4-one]",0.01 to 10 nM
11,"CCCCc1nc(=O)c(S(=O)(=O)c2ccc(-c3ccncc3C)cc2)c(O)n1[C@@H](COC)c1cccc(C#N)c1 [Example 251, 3-[(1R)-1-{2-butyl-6-hydroxy-5-[4-[3-methylpyridin-4-yl)benzenesulfonyl]-4-oxo-1,4-dihydropyrimidin-1-yl}-2-methoxyethyl] benzonitrile]",0.01 to 10 nM
12,"CCCCc1nc(=O)c(S(=O)(=O)c2ccc(-c3ccncc3C)cc2)c(O)n1[C@@H](CC)c1ccc2c(c1)OCO2 [Example 252, 1-[(1S)-1-(2H-1,3-benzodioxol-5-yl)propyl]-2-butyl-6-hydroxy-5-[4-(3-methylpyridin-4-yl)benzenesulfonyl]-1,4-dihydropyrimidin-4-one]",0.01 to 10 nM
13,"CCCCc1nc(=O)c(S(=O)(=O)c2ccc(-c3ccnc(F)c3C)cc2)c(O)n1[C@@H](COC)c1cccc(C#N)c1 [Example 253, 3-[(1R)-1-{2-butyl-5-[4-(2-fluoro-3-methylpyridin-4-yl)benzenesulfonyl]-6-hydroxy-4-oxo-1,4-dihydropyrimidin-1-yl}-2-methoxyethyl] benzonitrile]",0.01 to 10 nM
14,"CCCCc1nc(O)c(S(=O)(=O)c2ccc(Br)cc2)c(=O)n1[C@H](CC)c1cccc2c1OCO2 [Example 254, 3-[(1R)-1-(2H-1,3-benzodioxol-4-yl)propyl]-5-(4-bromobenzenesulfonyl)-2-butyl-6-hydroxy-3,4-dihydropyrimidin-4-one]",10 to 100 nM
15,"CCCCc1nc(=O)c(S(=O)(=O)c2ccc(-c3cncc(F)c3)cc2)c(O)n1[C@H](CC)c1cccc2c1OCO2 [Example 255, 1-[(1R)-1-(2H-1,3-benzodioxol-4-yl)propyl]-2-butyl-5-[4-(5-fluoropyridin-3-yl)benzenesulfonyl]-6-hydroxy-1,4-dihydropyrimidin-4-one]",0.01 to 10 nM
16,"CCCCc1nc(=O)c(S(=O)(=O)c2ccc(-c3ccncc3C)cc2)c(O)n1[C@@H](CC)c1cccc2c1OCO2 [Example 256, 1-[(1S)-1-(2H-1,3-benzodioxol-4-yl)propyl]-2-butyl-6-hydroxy-5-[4-(3-methylpyridin-4-yl)benzenesulfonyl]-1,4-dihydropyrimidin-4-one]",0.01 to 10 nM
17,"CCCCc1nc(=O)c(S(=O)(=O)c2ccc(-c3ccnc(F)c3C)cc2)c(O)n1[C@@H](CC)c1cccc2c1OCO2 [Example 257, 1-[(1S)-1-(2H-1,3-benzodioxol-4-yl)propyl]-2-butyl-5-[4-(2-fluoro-3-methylpyridin-4-yl)benzenesulfonyl]-6-hydroxy-1,4-dihydropyrimidin-4-one]",0.01 to 10 nM
18,"CCCCc1nc(=O)c(S(=O)(=O)c2ccc(-c3cncc(F)c3)cc2)c(O)n1[C@@H](CC)c1cccc2c1OCO2 [Example 258, 1-[(1S)-1-(2H-1,3-benzodioxol-4-yl)propyl]-2-butyl-5-[4-(5-fluoropyridin-3-yl)benzenesulfonyl]-6-hydroxy-1,4-dihydropyrimidin-4-one]",0.01 to 10 nM
19,"CCCCc1nc(=O)c(S(=O)(=O)c2ccc(-c3ccncc3C)cc2)c(O)n1[C@H](CC)c1cccc2c1OCO2 [Example 259, 1-[(1R)-1-(2H-1,3-benzodioxol-4-yl)propyl]-2-butyl-6-hydroxy-5-[4-(3-methylpyridin-4-yl)benzenesulfonyl]-1,4-dihydropyrimidin-4-one]",0.01 to 10 nM
20,"CCCCc1nc(=O)c(S(=O)(=O)c2ccc(-c3cccnc3C)cc2)c(O)n1[C@H](CC)c1cccc2c1OCO2 [Example 260, 1-[(1R)-1-(2H-1,3-benzodioxol-4-yl)propyl]-2-butyl-6-hydroxy-5-[4-(2-methylpyridin-3-yl)benzenesulfonyl]-1,4-dihydropyrimidin-4-one]",0.01 to 10 nM
21,"CCCCc1nc(O)c(S(=O)(=O)c2ccc(Br)cc2)c(=O)n1[C@@H](CC)c1cccc2c1OCO2 [Example 261, 3-[(1S)-1-(2H-1,3-benzodioxol-4-yl)propyl]-5-(4-bromobenzenesulfonyl)-2-butyl-6-hydroxy-3,4-dihydropyrimidin-4-one]",0.01 to 10 nM
22,"CCCCc1nc(=O)c(S(=O)(=O)c2ccc(-c3ccc(F)nc3C)cc2)c(O)n1[C@H](CC)c1cccc2c1OCO2 [Example 262, 1-[(1R)-1-(2H-1,3-benzodioxol-4-yl)propyl]-2-butyl-5-[4-(6-fluoro-2-methylpyridin-3-yl)benzenesulfonyl]-6-hydroxy-1,4-dihydropyrimidin-4-one]",0.01 to 10 nM
23,"CCCCc1nc(=O)c(S(=O)(=O)c2ccc(-c3cccnc3C)cc2)c(O)n1[C@@H](CC)c1cccc2c1OCO2 [Example 263, 1-[(1S)-1-(2H-1,3-benzodioxol-4-yl)propyl]-2-butyl-6-hydroxy-5-[4-(2-methylpyridin-3-yl)benzenesulfonyl]-1,4-dihydropyrimidin-4-one]",0.01 to 10 nM
24,"CCCCc1nc(=O)c(S(=O)(=O)c2ccc(-c3ccc(F)nc3C)cc2)c(O)n1[C@@H](CC)c1cccc2c1OCO2 [Example 264, 1-[(1S)-1-(2H-1,3-benzodioxol-4-yl)propyl]-2-butyl-5-[4-(6-fluoro-2-methylpyridin-3-yl)benzenesulfonyl]-6-hydroxy-1,4-dihydropyrimidin-4-one]",0.01 to 10 nM
25,"CCCCc1nc(=O)c(S(=O)(=O)c2ccc(-c3ccncc3C)cc2)c(O)n1[C@@H](CC)c1ccc(C#N)cc1 [Example 265, 4-[(1S)-1-{2-butyl-6-hydroxy-5-[4-(3-methylpyridin-4-yl)benzenesulfonyl]-4-oxo-1,4-dihydropyrimidin-1-yl}propyl]benzonitrile]",0.01 to 10 nM
26,"CCCCc1nc(=O)c(S(=O)(=O)c2ccc(-c3cccnc3C)cc2)c(O)n1[C@@H](CC)c1ccc(C#N)cc1 [Example 266, 4-[(1S)-1-{2-butyl-6-hydroxy-5-[4-(2-methylpyridin-3-yl)benzenesulfonyl]-4-oxo-1,4-dihydropyrimidin-1-yl}propyl]benzonitrile]",0.01 to 10 nM
27,"CCCCc1nc(=O)c(S(=O)(=O)c2ccc(-c3ccc(F)nc3C)cc2)c(O)n1[C@@H](CC)c1ccc(C#N)cc1 [Example 267, 4-[(1S)-1-{2-butyl-5-[4-(6-fluoro-2-methylpyridin-3-yl)benzenesulfonyl]-6-hydroxy-4-oxo-1,4-dihydropyrimidin-1-yl}propyl]benzonitrile]",0.01 to 10 nM
28,"CCCCc1nc(=O)c(S(=O)(=O)c2ccc(-c3ccnc(F)c3C)cc2)c(O)n1[C@@H](CC)c1ccc(C#N)cc1 [Example 268, 4-[(1S)-1-{2-butyl-5-[4-(2-fluoro-3-methylpyridin-4-yl)benzenesulfonyl]-6-hydroxy-4-oxo-1,4-dihydropyrimidin-1-yl}propyl]benzonitrile]",0.01 to 10 nM
